Assays:
HIV = assay: Infectivity of azide-labeled HIV, luciferase reporter assay on TZM/BI reporter cell line; format: cell-based; settings: HIVNL4-3 labeled in CEMx174 cells; virus incubated 12 hours on TZM/BI; single cycle replication system; two luciferase reagents; FIGS. 3 and 4
Description: CEMx174 cells were transfected with HIVNL4-3 in a T-150 flask and the virus production was monitored by reverse transcriptase activity until peak virus production occurred (usually 7 to 9 days post transfection). Prior to transfection, the CEMx174 cells were spiked with the following azide-modified biomolecules: 15-azidopentadecanoic acid (50-100 μM), 12-azidododecanoic acid (50-100 μM), tetraacetylated N-azidoacetylgalactosamine (20-40 μM), and tetraacetylated N-azidoacetyl-D-mannosamine (20-40 μM).
Labeled virus was also obtained from the transfected cells. More specifically, virus-containing supernatants were collected and virus was purified through 20% sucrose as previously described (Graham, D. R. et al., Proteomics 2008, 8:4919-30). The purified virus was then mixed with the CLICK-IT® detection reagent, tetramethylrhodamine (TAMRA) alkyne and the CLICK-IT® Protein Reaction Buffer Kit (Invitrogen, Carlsbad, Calif.). Virus samples were run on a one-dimensional gel to reveal azide-labeled viral proteins (FIG. 2). […]
To examine the effect of the azide-modified biomolecules on the innate biology of the virus, the azide-labeled virus from the transfected cells was isolated and tested in cell infection studies. […] Viral infectivity was determined by measuring cellular luciferase activities with two different luciferase reagents.

[1] = test system: Nuclear-GFP BacMam 2.0 Virus (baculovirus); assay: Infectivity of PTM analog-labeled Nuclear-GFP BacMam baculovirus in U2-OS cells; format: cell-based; settings: virus labeled in Sf9 cells with 50 uM analog; U2-OS cells incubated overnight with labeled virus; FIG. 5
Source text: Inhibition of insect cell baculovirus infectivity with azido fatty acid analogs: The BacMam system uses a modified insect cell virus (baculovirus) as a vehicle to efficiently deliver and express genes in mammalian cells. A Nuclear-GFP BacMam 2.0 expression system (Invitrogen, C10602) was used as a model to determine if PTM analog labeling of the virus would affect mammalian cell infectivity. Viruses were labeled with various PTM analogs and used to infect mammalian cells. Infectivity was determined by the expression of nuclear-GFP, as viral entry into the cell is required for expression of GFP protein, […]
Characterization of BacMam virus production: To verify, quantitate, and normalize the amount of enriched viruses obtained from insect cell supernatants, samples of each virus were lysed in SDS sample preparation buffer (SPB), sonicated with a probe tip sonicator, and heated at 90C to completely dissolve the viral proteins. Viral protein concentrations of the lysates were then determined. […]
Mammalian cell infection protocol: To determine if the PTM analog-labeled viruses retain the ability to infect mammalian cells, 50,000 U2-OS cells (human osteosarcoma cell line) were plated onto a 6 well-chamber glass bottom plate. […] The following day cells were imaged on AMG EVOS fluorescence microscope at 10× or 20× magnification using both white light and GFP filters (FIG. 5). […]

| SMILES | impact on the infectivity of the virus (cellular luciferase activity) (HIV) | nuclear-GFP expression (viral entry) [1] |
| --- | --- | --- |
| [N-]=[N+]=NCCCCCCCCCCCC(=O)O [12-azidododecanoic acid] | profound impact on the infectivity of the virus | no nuclear-GFP expression |
| [N-]=[N+]=NCCCCCCCCCCCCCCC(=O)O [15-azidopentadecanoic acid] | – | no nuclear-GFP expression |
